Reference: PMC10765413, “Correlating Conformational Equilibria with Catalysis in the Electron Bifurcating EtfABCX of Thermotoga maritima” (Biochemistry, 2023)
Read-outs that look alike come from different tables or passages of the source. One block for each compound: values may come before it.

Assays:
[1] = target: T1, EtfABCX (Thermotoga maritima, UniProt Q9X1L6+Q9X1L7+Q9X1L8); test: FAD released by […] SDS and quantified by absorbance; assay type: binding; settings: co-purified; BF-FAD in EtfA, ET-FAD in EtfB, QR-FAD in EtfC
T1 construct: gene TM_1530; operon in pET-21a(+), N-terminal 9xHis tag, E. coli BL21(DE3) deltaiscR, anaerobic purification; superdimer (ABCX)2, 257 kDa, three FAD per supermonomer; with Ferredoxin-like protein FixX (EtfX; two [4Fe-4S] clusters)

[2] = target: T2, EtfAB (Thermotoga maritima, UniProt Q9X1L6+Q9X1L7); test: FAD released by […] SDS and quantified by absorbance; assay type: binding; settings: co-purified; BF-FAD site in EtfA and ET-FAD site in EtfB
T2 construct: gene TM_1530; recombinant EtfAB heterodimer from E. coli BL21(DE3) deltaiscR, 9xHis tag, 69 kDa expected, two FAD per heterodimer, purified anaerobically

[3] = target: T2, EtfAB; test: anaerobic SEC-SAXS with in-line UV-visible spectroscopy (flavin reduction, compaction); assay type: binding; settings: 20 mM Tris-HCl pH 8.0, 200 mM NaCl, room temperature
[4] = target: Thermotoga maritima Fix/EtfABCX supermonomer (ABCX heterotetramer protomer) (Thermotoga maritima); test: SEC-MALS + other: SEC-SAXS; anaerobic SEC-MALS-SAXS of purified EtfABCX; KW-803 column, room temperature, 0.65 mL/min; 20 mM Tris-HCl pH 8.0, 200 mM NaCl with 0.01% DDM (also buffer only); no additive, NADH, NAD+ or DT in the running buffer
[5] = target: Thermotoga maritima Fix/EtfABCX supermonomer (ABCX heterotetramer protomer) (Thermotoga maritima); test: as above; remark: listed apart in the source
[6] = target: T1, EtfABCX; test: anaerobic SEC-MALS-SAXS with in-line UV-visible spectroscopy; assay type: binding; settings: NAD+ in running buffer, 20 mM Tris-HCl pH 8.0, 200 mM NaCl, 0.01% DDM

T2 sequence (Q9X1L6 entry or part of it): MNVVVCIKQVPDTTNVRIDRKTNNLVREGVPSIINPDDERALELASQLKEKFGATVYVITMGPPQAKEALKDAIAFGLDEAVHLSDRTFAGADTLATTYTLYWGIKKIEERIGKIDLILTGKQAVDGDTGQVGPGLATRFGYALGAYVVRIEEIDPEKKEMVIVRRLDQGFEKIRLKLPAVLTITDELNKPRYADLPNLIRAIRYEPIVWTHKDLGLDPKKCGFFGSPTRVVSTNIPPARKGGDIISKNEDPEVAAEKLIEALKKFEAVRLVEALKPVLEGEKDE
T2 sequence (Q9X1L7 entry or part of it): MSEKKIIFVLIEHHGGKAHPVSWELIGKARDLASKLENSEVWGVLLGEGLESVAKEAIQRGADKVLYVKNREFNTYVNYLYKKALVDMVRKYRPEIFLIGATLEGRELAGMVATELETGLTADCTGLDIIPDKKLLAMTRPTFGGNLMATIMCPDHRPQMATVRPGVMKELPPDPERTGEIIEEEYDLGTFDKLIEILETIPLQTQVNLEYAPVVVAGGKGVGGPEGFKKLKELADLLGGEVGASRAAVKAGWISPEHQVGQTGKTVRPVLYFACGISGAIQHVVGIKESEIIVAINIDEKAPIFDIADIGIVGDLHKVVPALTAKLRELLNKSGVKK
T1 sequence (Q9X1L6 2-285): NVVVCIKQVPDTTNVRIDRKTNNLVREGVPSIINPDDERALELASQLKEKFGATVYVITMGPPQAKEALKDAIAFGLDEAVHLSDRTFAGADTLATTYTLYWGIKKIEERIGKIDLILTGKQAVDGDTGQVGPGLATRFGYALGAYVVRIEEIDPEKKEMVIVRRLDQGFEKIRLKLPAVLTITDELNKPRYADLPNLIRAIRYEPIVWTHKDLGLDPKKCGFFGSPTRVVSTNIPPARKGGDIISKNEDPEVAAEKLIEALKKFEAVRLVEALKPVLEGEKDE
T1 sequence (Q9X1L7 1-338): as the sequence (Q9X1L7 entry or part of it) above
T1 sequence (Q9X1L8 1-438): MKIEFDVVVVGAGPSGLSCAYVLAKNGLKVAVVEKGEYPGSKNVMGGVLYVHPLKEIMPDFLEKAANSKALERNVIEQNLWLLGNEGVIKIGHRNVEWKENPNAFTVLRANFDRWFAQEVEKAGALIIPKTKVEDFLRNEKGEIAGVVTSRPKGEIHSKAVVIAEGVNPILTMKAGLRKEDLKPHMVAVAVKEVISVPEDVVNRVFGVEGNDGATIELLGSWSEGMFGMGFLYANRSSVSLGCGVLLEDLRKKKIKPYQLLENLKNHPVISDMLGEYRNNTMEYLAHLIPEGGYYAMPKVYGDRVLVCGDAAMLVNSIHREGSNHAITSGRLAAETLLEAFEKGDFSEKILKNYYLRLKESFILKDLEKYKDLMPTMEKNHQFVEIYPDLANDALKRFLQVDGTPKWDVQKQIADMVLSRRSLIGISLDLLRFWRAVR
T1 sequence (Q9X1L9 1-92 partner): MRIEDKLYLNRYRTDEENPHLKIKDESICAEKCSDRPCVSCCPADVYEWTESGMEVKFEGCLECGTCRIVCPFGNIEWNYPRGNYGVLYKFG

Compound: Cc1cc2nc3c(=O)[nH]c(=O)nc-3n(C[C@H](O)[C@H](O)[C@H](O)COP(=O)(O)OP(=O)(O)OC[C@H]3O[C@@H](n4cnc5c(N)ncnc54)[C@H](O)[C@@H]3O)c2cc1C [FAD]
FAD released by 1% SDS and quantified by absorbance [1]: approximately three and two molecules of FAD per EtfABCX supermonomer and EtfAB heterodimer, respectively
FAD released by 1% SDS and quantified by absorbance [2]: approximately three and two molecules of FAD per EtfABCX supermonomer and EtfAB heterodimer, respectively

Compound: NC(=O)C1=CN([C@@H]2O[C@H](COP(=O)(O)OP(=O)(O)OC[C@H]3O[C@@H](n4cnc5c(N)ncnc54)[C@H](O)[C@@H]3O)[C@@H](O)[C@H]2O)C=CC1 [NADH]
anaerobic SEC-SAXS with in-line UV-visible spectroscopy (flavin reduction, compa) ([3]; excess NADH in running buffer): EtfAB in the presence of excess NADH indicated that its FAD cofactors were fully reduced

stoichiometry N [4]: 2
stoichiometry N [5]: 4
Compound: Thermotoga maritima Fix/EtfABCX supermonomer (ABCX heterotetramer protomer) (complex)

Compound: NC(=O)c1ccc[n+]([C@@H]2O[C@H](COP(=O)(O)OP(=O)(O)OC[C@H]3O[C@@H](n4cnc5c(N)ncnc54)[C@H](O)[C@@H]3O)[C@@H](O)[C@H]2O)c1 [NAD^+]
anaerobic SEC-MALS-SAXS with in-line UV-visible spectroscopy [6]: likely due to the formation of an EtfABCX-NAD^+ complex
anaerobic SEC-SAXS with in-line UV-visible spectroscopy (flavin reduction, compa) ([3]; excess NAD+ in running buffer, as-purified enzyme): EtfAB in the presence of NAD^+ led the enzyme into a more extended state
